Data taken from patent publication US20110197288A1, “Transgenic animal for screening of compounds that modulate cell proliferation, and its use in the pharmaceutical field” (priority 2009, published 2011).

Columns and labels:
[1] = test system: skin of transgenic mouse (luciferase reporter under CYCB2 promoter); test: skin light emission imaging after cutaneous application of carcinogen to transgenic mouse; conditions: 0.24% DMBA solution in acetone on skin, day 7 relative to day 0; FIG. 9
Description: To evaluate this application, the skin of a transgenic mouse according to the invention was treated with DMBA, a carcinogen, and the stimulation of light emission was measured for the carcinogen-treated side compared to the side treated with vehicle alone.
In particular, a 0.24% DMBA solution in acetone was applied to the skin of transgenic individuals according to the invention. One week later (day 7 relative to day 0) the amount of luciferase produced was detected by measuring the light emission produced by the skin of the animals.

bone marrow cells [2] = test: luciferase expression (RLU per microgram protein) in bone marrow cells of treated transgenic mice; type: in vivo, mouse; conditions: 5 day 5FU treatment, FIG. 8A
Description: To assess the expression of luciferase in proliferating progenitor cells, bone marrow cells, that are highly enriched in hematopoietic precursors, were collected by flushing the femurs with culture medium and enzyme activity was analyzed in protein extracts (Ciana et al 2001), as shown in the graph in FIG. 3A.
(§1) As an example of application for development of anti-proliferative drugs, heterozygous individuals of the transgenic mouse line according to the invention were treated as follows: a first group was treated with 150 ug/kg 5-fluorouracil (5FU), a well-known chemotherapeutic agent, while another group was treated with saline as control (vehicle) for 2 and 5 days.

bone marrow cells [3] = test: cell cycle phase analysis of bone marrow cells by FACS with propidium iodide staining; type: in vivo, mouse; conditions: bone marrow cells from 5FU treated mice, vehicle 11.2%, FIG. 8B
Description: as §1
Cells were fixed with methanol acetone 4:1, stained with 0.1 mg/ml propidium iodide, a DNA fluorescent marker, and then subjected to FACS analysis.

[4] = test system: cell proliferation (luciferase reporter under CYCB2 promoter) in tissues; test: luciferase activity in tissue protein extracts of treated CYCB2-luciferase transgenic mice; type: in vivo, mouse; conditions: 150 ug/kg 5FU, 2 and 5 days, all tissues analysed, versus saline vehicle; FIG. 7
Description: For this purpose, organs were homogenized in lysis buffer and lysates were subjected to three cycles of freezing and thawing. Proteins were separated from DNA and lysosomes by centrifugation (13000×g for 30 min). After determining the protein concentration of the extract, the biochemical assay of luciferase activity was carried out by measuring luminescence emission with a luminometer. The relative luminescence units (RLU) determined during a measurement of 10 seconds were then expressed on the Y axis as RLU values per microgram protein. The results according to the graph in FIG. 2C indicate that, in the adult animal, light emission is restricted to organs characterized by basal homeostatic proliferation such as spleen, bone marrow, femur and sternum, or sites of active tissue remodeling in the mouse, such as joints of the feet, jaw, etc.
as §1
Mice were sacrificed and luciferase activity was evaluated in tissue protein extracts, as reported in the graph in FIG. 7.

| Compound | induction of luciferase activity (light emission) versus region treated with vehicle alone [1] [fold] | luciferase expression in bone marrow cells (bone marrow cells [2]) | S phase cells (bone marrow cells [3]) [%] | luciferase activity in tissue protein extracts [4] |
| --- | --- | --- | --- | --- |
| Cc1c2ccccc2c(C)c2c1ccc1ccccc12 [DMBA, 7,12-dimethylbenz(a)anthracene] | 12.5 | – | – | – |
| O=c1[nH]cc(F)c(=O)[nH]1 [5FU, 5-fluorouracil] | – | reduced luciferase expression | 1.97 | Reduced luciferase activity, until levels that were undetectable |
